Source: US20030114434A1, “EXTENDED DURATION LIGHT ACTIVATED CANCER THERAPY” (priority 1999, published 2003)
Values joined by “and” are separate entries in the source; they are usually repeats but may differ in a detail not shown here. Equal values may be shown once.

Experiments:
epithelial cancer cells = test: Nude mice injected with epithelial cancer cells preincubated with photosensitizer, low fluence light; type: in vivo; conditions: for tumor growth: 660 nm light 48 hours, two mice
Method: (§1) A series of experiments were performed using nude mice growing transplanted human tumors. The mice are injected with various photosensitizers and the tumors illuminated with low fluence of only 30 uW of light over a 72 hour time period. Extended tumor necrosis was observed.
(§2) All control nude mice were injected with the PDT drug (intratumor or intraperitoneal) and 5 million human carcinoma cells which developed a tumor mass. These mice were kept in a darkened environment.
(§3) Another two mice with established tumors were injected with 50-100 micrograms of Pheophorbide A into the lesion and exposed to 660 nm light (30 microwatts per cm^2) for 72 hours.
(§4) Two experimental mice were injected with epithelial cancer cells preincubated with 20 micrograms of Chlorin e6. […] Another two mice were injected with 100-150 micrograms of Chlorin e6 intratumorally and then exposed to 660 nm light (30 microwatts per cm^2) for 72 hours.

[1] = system: transplanted human tumors; test: Nude mice with established transplanted human tumors, photosensitizer injected, low fluence light 72 hours; type: in vivo; conditions: for tumor necrosis: 660 nm light 72 hours, 30 microwatts per cm^2, after 7 days, two mice
Method: as §1, §2, §3, §4
Five experimental mice bearing established tumors were injected with 1 mg Hpd intraperitoneally followed by exposure to 630 nm (peak) light (30 microwatts per cm^2) for 72 hours. […] There was no effect observed on control animals maintained in the absence of light (dark control mice).

[2] = system: colon carcinoma tumor mass; test: Extended duration PDT of a colon carcinoma tumor mass in a patient, implanted LED probes; type: in vivo, human
Source text: A patient in the terminal phase of recurrent malignant colon cancer having undergone chemotherapy and irradiation therapy, presented with a protruding colon carcinoma tumor mass of approximately 500 grams and approximately 13 cm in diameter, which extended through the patient's dermis. Due to the advanced state of the patient's disease and due to the highly vascularized nature of this tumor mass, resection was not feasible. Further, this large tumor mass presented a significant amount of pain and discomfort to the patient, as well as greatly impairing the patient's ability to lie flat.
Six separate light source probes, each including a linear array of LEDs, were surgically implanted in this large human tumor using standard surgical procedures. A single dose of a photosensitizer agent (aminolevulinic acid (ALA) at 60 mg/kg) was provided by oral administration to the patient. Following a period of five hours to permit sufficient clearance of the photosensitizing agent from healthy tissues, light irradiation was administered. An intensity of about 25-30 mW of light from each light source probe (650 nm peak wavelength) was delivered to the tumor for 40 hours. […] The total fluence delivered to the tumor bed during this single extended duration treatment was in excess of 20,000 Joules.
The fluence rate employed in this Example represented about 150-180 mW/cm^2, with a total fluence more than 20,000 Joules.

[3] = cited from earlier work
[4] = systemic clinical use; cited from earlier work

**Q.** Which results are given for `C=Cc1c(C)c2cc3nc(c(CC(=O)O)c4[nH]c(cc5nc(cc1[nH]2)C(C)=C5CC)c(C)c4C(=O)O)[C@@H](CCC(=O)O)[C@@H]3C` [Chlorin e6]?
**A.** tumor growth, dark control (epithelial cancer cells; Chlorin e6 experiment, absence of light): developed a large tumor; tumor growth (epithelial cancer cells; cells preincubated with 20 micrograms, 30 microwatts per cm^2, after 1.5 months): no tumor growth; tumor necrosis ([1]; 100-150 micrograms intratumorally): Extensive tumor necrosis

**Q.** Which “tumor growth, dark control” value (epithelial cancer cells; Pheophorbide A experiment, maintained in the absence of light) does the source give for Pheophorbide A here?
**A.** The value was “developed a large tumor”.

**Q.** And the tumor growth (epithelial cancer cells; cells preincubated with 10 micrograms, 30 microwatts per cm2, after 1.5 months)?
**A.** Its tumor growth is “no tumor growth”.

**Q.** What about the tumor necrosis ([1]; 50-100 micrograms into the lesion) of the same molecule?
**A.** Its tumor necrosis is “Extensive tumor necrosis”.

**Q.** What about the “effect on tumor, dark control” value ([1]; Pheophorbide A experiment, absence of light) of the same molecule?
**A.** The value was “no effect”.

**Q.** With `NCC(=O)CCC(=O)O` [ALA, aminolevulinic acid] as the molecule, how does the “collateral damage to surrounding normal tissue” value ([2]; ALA 60 mg/kg oral, after 40 hours of PDT) read?
**A.** The value was “no collateral damage”.

**Q.** And the “radius of extensive tumor necrosis from each light source probe” value ([2]; ALA 60 mg/kg oral, light from 5 hours after dose, 650 nm, 40 hours of PDT, total fluence >20,000 Joules)?
**A.** The value was “greater than 5 cm”.

**Q.** And the “reduction of tumor tissue (necrotic tissue debrided)” value ([2]; over four weeks following PDT)?
**A.** The value was “approximately 500 grams”.

**Q.** Which results are given for `CC(=O)[O-].CC(=O)[O-].CCc1c(CC)c2cc3nc(cnc4cc(OCCOCCOCCOC)c(OCCOCCOCCOC)cc4ncc4nc(cc1[n-]2)C(CCCO)=C4C)C(C)=C3CCCO.O.[Lu+3]` [Lutrin, lutetium texaphyrin]?
**A.** time for clearance from normal tissues (predominant amount) ([3]; from administration): about 24 hours; time tumor tissue retains the agent ([3]; from time of administration): 48 to 96 h and 24 to 96 h; time at which a larger proportion clears from normal tissue ([3]; in vivo): about 8 hours; time at which a proportion begins to clear from normal tissue ([3]; in vivo): about 3 hours; time at which an even greater proportion clears from normal tissue ([3]; in vivo): about 16 hours

**Q.** With `CCOC(=O)C1=Cc2c3nc(cc4nc(cc5[n-]c(cc6[n-]c2c(C)c6CC)c(C)c5CC)C(C)=C4CC)[C@@H](C)[C@]13CC.[Cl-].[Cl-].[Sn]` (racemic) [PURLYTIN] as the molecule, how does the “duration of dermal photosensitivity” value [4] read?
**A.** Its value is “at least several weeks”.

**Q.** Which “duration of dermal photosensitivity” value [4] does the source give for sodium porfimer [PHOTOFRIN] here?
**A.** The value was “up to six weeks”.

**Q.** With `Oc1cccc(-c2c3nc(c(-c4cccc(O)c4)c4ccc([nH]4)c(-c4cccc(O)c4)c4nc(c(-c5cccc(O)c5)c5ccc2[nH]5)CC4)C=C3)c1` [FOSCAN] as the molecule, how does the “duration of dermal photosensitivity” value [4] read?
**A.** Its value is “at least several weeks”.
